{"source": "patent US7226754B2", "about": "“Kinase Wee1 fusion protein compositions, nucleotide sequences, expression systems, and methods of use” (The Scripps Research Institute, priority 1998, dated 2007)", "key": {"[1]": {"test_system": "Schizosaccharomyces pombe", "experiment": "Replication checkpoint: progression through mitosis of synchronous cultures in the presence of HU", "format": "cell-based", "settings": "12 mM HU", "experimental": "FIGS. 5A–5B are graphs which illustrate that replication checkpoint is abolished in Cds1 chk1 cells as described in Example 2. […] Progression through mitosis in the presence of 12 mM HU was monitored by scoring binucleate or septated cells. The cds1 chk1 double mutant and rad3 cells underwent mitosis in the presence of HU, whereas division was arrested in control strains (wild-type, Cds1 and chk1 single mutants).\n(§1) The cell lysates were obtained from a variety of strains of S. pombe cells having the following genotypes: PR109, wild-type; NB2117, cds1::ura4+; NB2118, cds1:2HA6His:ura4+; NR1826, rad3::ura4+; OM591, cdc22-M45; NR1593, rad1::ura4+; NR1592,chk1::ura4+; BF1758, nmt1:GST:chk1:leu1+; BF1916, nmt1:GST:cds1:leu1+; OM2173, mik1:2HA6His:ura4+; OM2183, mik1:2HA6His:ura4+cds1::ura4+; PR712, mik1::ura4+; and BF2115, cds1::ura4+chk1::ura4+. All strains were leu1-32 ura4-D18. All nmt1 promoter constructs were integrated at the leu1-32 locus. Growth media and general methods for S. pombe have been described [Moreno et al, Meth. Enzymol., 194:795 (1991)]. Unless otherwise indicated, yeast cultures were grown in YES medium at 30 C. […]\nCells were first grown in YES (yeast extract and glucose) medium to an OD600 of 1.0 and then treated with HU (12 mM) for 90 min at 30 C. […] Cells were scored for progression through mitosis by microscopic observation. […]"}, "[2]": {"test_system": "Schizosaccharomyces pombe", "experiment": "HU sensitivity (survival) of S. pombe strains", "format": "cell-based", "settings": "for sensitivity to killing by HU: 12 mM HU", "experimental": "FIG. 3D is a photograph of cell cultures which illustrates that Mikl is important for survival of HU treatment. Serial dilutions or wild-type and mik1 cells were plated in YES medium supplemented with 0 or 6 mM HU and incubated for 2 days at 30° C.\nCells were first grown in YES (yeast extract and glucose) medium to an OD600 of 1.0 and then treated with HU (12 mM) for 90 min at 30 C. Synchronous cells were then obtained by centrifugal elutriation with a Beckman JE-5.0 elutriation rotor. These cells were diluted to an OD600 of 0.3 in YES containing 12 mM HU and grown at 30 C. for a further 4 hr. Cells were scored for progression through mitosis by microscopic observation. HU sensitivity studies were carried out with cells grown to an OD600 of 0.3 in YES medium and then diluted to 13,000 cells/ml in YES media containing HU (12 mM), followed by growth at 30 C. for a further 8 hr. Samples (75 μl) were taken at regular intervals, plated onto YES plates and grown for 4 days at 30 C. to determine survival."}, "GST:Wee1": {"test_system": "GST:Wee1", "experiment": "GST:Wee1 phosphorylation by associated kinase from lysates of HU-treated cells", "format": "cell-based, Schizosaccharomyces pombe", "settings": "lysates of cells treated with 12 mM HU, 1 hr time course at 30° C.", "experimental": "FIG. 1B is a photograph of an analysis of proteins from cells that were treated with 12 mM HU for a 1 hr time course at 30° C. Cell lysates were incubated with GST:Wee1 proteins bound to GSH-Sepharose. The GSH-Sepharose was washed and assayed for associated kinase activity. The positions of GST:Wee1^152 and GST:Wee1^70 following 12% SDS-polyacrylamide gel electrophoresis are shown.\nThe GST:Wee1^152 and GST:Wee1^70 proteins prepared in Example 1 were used to study yeast cellular functions. To that end, the isolated proteins were bound to glutathione (GSH)-Sepharose and mixed with cell lysates from the fission yeast Schizosaccharomyces pombe (S. pombe) harvested at intervals during incubation with hydroxyurea (HU).\nas §1, with “locus.” for “locus. Growth media and general methods for S. pombe have been described [Moreno et al, Meth. Enzymol., 194:795 (1991)]. Unless otherwise indicated, yeast cultures were grown in YES medium at 30 C.”\nThe proteins bound to GSH-Sepharose were washed, incubated with [gamma-^32P]ATP and analyzed by SDS-polyacrylamide gel electrophoresis (FIG. 1B). […]"}, "Cds1 [3]": {"test_system": "Cds1", "experiment": "Binding of Cds1HAHIS from cell lysates to GST:Wee1 (immunoblot)", "format": "cell-based, Schizosaccharomyces pombe", "settings": "lysates of Cds1HAHIS cells treated 3.5 hr with HU vs mock-treated", "from_the_text": "FIGS. 3A–3D illustrate that HU stimulates Cds1 kinase activity, binding of Cds1 to GST:Wee1^70 in lysates and accumulation of Mik1 as described in Example 2. FIG. 3A is a photograph of an analysis of proteins which illustrates that HU stimulates Cds1 binding to GST:Wee1^70. A culture of cells expressing Cds1^HAHIS from the cds1 genomic locus was split and treated for 3.5 hr with HU or mock-treated. The cultures were split again and samples processed for Ni^2+-NTA purification of Cds1^HAHIS in denaturing conditions or purification of proteins that bind GST:Wee1 proteins in nondenaturing conditions. After extensive washing, samples were resolved by 10% SDS-polyacrylamide gel electrophoresis and subjected to immunoblot analysis.\nHU may increase the abundance of Cds1, or it may make Cds1 competent to associate with Wee1, or perhaps the replication checkpoint enhances the kinase activity of Cds1. Cells expressing Cds1^HAHIS were treated with HU or mock-treated; lysates were made and precipitated with GST:Wee1 proteins. Association of Cds1^HAHIS with GST:Wee1 was detected in lysates from cells treated with HU, whereas no Cds1^HAHIS associated with GST:Wee1 in mock-treated samples (FIG. 3A)."}, "Cds1 [4]": {"test_system": "Cds1", "experiment": "Cds1HAHIS autophosphorylation assay after HU treatment of cells", "format": "cell-based, Schizosaccharomyces pombe", "settings": "Cds1HAHIS purified from HU or mock-treated cells", "from_the_text": "FIG. 3B is a photograph of an analysis of proteins which illustrates that HU activates Cds1 kinase activity. In a separate experiment Cds1^HAHIS was purified in native conditions and assayed for autophosphorylation activity (upper panel). Immunoblot analysis confirmed that similar amounts of Cds1HAHIS were recovered in the HU and mock-treated samples (lower panel).\nCds1^HAHIS was also purified from HU or mock-treated cells and assayed in an autophosphorylation assay. Phosphorylation of Cds1 was increased in samples from cells treated HU (FIG. 3B). Similar results were obtained using GST:Wee1^70 as a substrate. Thus HU apparently both activates Cds1 as a kinase and stimulates binding to Wee1."}, "Mik1": {"test_system": "Mik1", "experiment": "Mik1HAHIS abundance in HU-treated cells (immunoblot)", "format": "cell-based, Schizosaccharomyces pombe", "settings": "cells treated 4 hrs with 12 mM HU vs mock-treated", "experimental": "FIG. 3C is a photograph of an analysis of proteins which illustrates that Cds1 and Rad3-dependent increase in Mik1 abundance in HU-treated cells. Wild-type, Cds1 and rad3 cells in which genomic mik1 encoded Mik1^HAHIS protein were incubated for 4 hrs in YES at 25° C. with 12 mM HU or mock-treated. Mik1HARIS protein was purified by Ni^2+-NTA purification in denaturing conditions and detected by immunoblotting with antibodies to HA.\nPhosphorylation of Wee1 by Cds1 may play a role in the DNA replication checkpoint. However, wee1 mutants arrest division in response to HU (Enoch et al, Cell, 60:665, 1990), thus another protein that controls Cdc2 Tyr^15 phosphorylation must also be regulated by the replication checkpoint. The kinase Mik1 phosphorylates Cdc2 on Tyr^15 (Lundgren et al, Cell, 64:1111, 1991), therefore the abundance of Mik1 was monitored in HU-treated cells using a strain expressing Mik1^HAHIS from the genomic locus. […] The abundance of mik1 mRNA was unchanged in HU-treated cells, thus HU must influence Mik1 synthesis or turnover. […] Mik1 is a dose-dependent inhibitor of mitosis (Lundgren et al, Cell, 64:1111, 1991), thus the increase of Mik1 abundance in HU-treated cells should help to enforce the checkpoint."}}, "data": [{"smiles": "NC(=O)NO", "note": "[HU, hydroxyurea]", "values": [{"measurement": "cell division in the presence of HU", "setting": "[1]; Cds1 chk1 double mutant cells", "value": "underwent division"}, {"measurement": "cell division in the presence of HU", "setting": "[1]; wild-type cells, Cds1 and chk1 single mutants", "value": "arrested division"}, {"measurement": "sensitivity to killing by HU", "setting": "[2]; Cds1 cells", "value": "moderately sensitive"}, {"measurement": "sensitivity to killing by HU", "setting": "[2]; Cds1 chk1 double mutant cells", "value": "acutely sensitive to killing"}, {"measurement": "sensitivity to HU", "setting": "[2]; mik1 mutants, YES medium with 0 or 6 mM HU, 2 days at 30° C.", "value": "enhanced sensitivity"}, {"measurement": "sensitivity to killing by HU", "setting": "[2]; wild-type and chk1 cells", "value": "not sensitive"}, {"measurement": "phosphorylation of GST:Wee1^152 and GST:Wee1^70", "setting": "GST:Wee1", "value": "increased"}, {"measurement": "association of Cds1 with GST:Wee1", "setting": "Cds1 [3]", "value": "enhanced association"}, {"measurement": "phosphorylation of Cds1 (autophosphorylation)", "setting": "Cds1 [4]", "value": "increased"}, {"measurement": "amount of Mik1HAHIS", "setting": "Mik1", "value": "increased"}]}]}
